This is an account of results in patent publication US7714047B2, “Process for producing aqueous fluoropolymer dispension and aqueous fluoropolymer dispersion” (Daikin Industries, Ltd., priority 2003, dated 2010).

This series can be described thus: Octanol/water partition coefficient (log P) by HPLC elution time against a working curve of standard substances. Particulars: Tosoh ODS-120T column, acetonitrile/0.6% (by mass) aqueous HClO4 = 1/1, 40° C., UV 210 nm, standards heptanoic, octanoic, nonanoic and decanoic acid. Format: physicochemical. Here is the method:
The octanol/water partition coefficient is the coefficient of partition between 1-octanol and water and is expressed in terms of log P [wherein P represents the ratio between the fluorine-containing surfactant (A) concentration in octanol/fluorine-containing surfactant (A) concentration in water as found upon phase separation of a fluorine-containing surfactant (A)-containing octanol/water mixture (1:1)]. The octanol/water partition coefficient is determined by the measurement method according to OECD Guideline 107. In measuring the octanol/water partition coefficient, such methods as the flask shaking method and reversed-phase high performance liquid chromatography can generally be employed.
(5) Octanol/Water Partition Coefficient
Standard substances (heptanoic acid, octanoic acid, nonanoic acid and decanoic acid) each having a known octanol/water partition coefficient were subjected to HPLC under the following conditions: column: Tosoh ODS-120T column (ø4.6 mm×250 mm), eluent: acetonitrile/0.6% (by mass) aqueous solution of HClO4=1/1 (vol/vol %), flow rate: 1.0 ml/minute, sample size: 300 μL, column temperature: 40° C., detection light: UV 210 nm. A working curve showing the relation between the elution time and the known octanol/water partition coefficient was then constructed. The coefficient in question was determined from the elution time in HPLC for the sample solution based on that working curve.
On to `N.O=C(O)C(F)(OC(F)(F)C(F)(F)C(F)(F)F)C(F)(F)F` (centres unmarked) [Fluorine-containing surfactant 2, C3F7OCF(CF3)COONH4], for which the “logP: octanol/water partition coefficient” value came out at 2.5.

“CF3CF2(CF2CF2)2COONH4 [Fluorine-containing surfactant 4]”: the “logP: octanol/water partition coefficient” value was found to be 3.0.

With `N.O=C(O)C(F)(F)C(F)(F)C(F)(F)C(F)(F)C(F)(F)C(F)(F)C(F)(F)F` [Fluorine-containing surfactant 5, CF3(CF2CF2)3COONH4], the “logP: octanol/water partition coefficient” value stood at 3.5.

As for `N.O=C(O)C(F)(F)C(F)(F)C(F)(F)C(F)(F)C(F)(F)C(F)F` [Fluorine-containing surfactant 1, H(CF2CF2)3COONH4], the “logP: octanol/water partition coefficient” value is recorded as 2.4.

With `N.O=C(O)C(F)(OC(F)(F)C(F)(OC(F)(F)F)C(F)(F)F)C(F)(F)F` (centres unmarked) [Fluorine-containing surfactant 3, CF3O(CF(CF3)CF2O)CF(CF3)COONH4], the “logP: octanol/water partition coefficient” value was 3.4.
